We go through seven compounds from patent US10882838B2, “Cannabinergic compounds and uses thereof” (Northeastern University, priority 2012, dated 2021).

Data set [1] has as its target hCB2 receptor (Homo sapiens (Human), UniProt P34972). Briefly: hCB2 competition-equilibrium binding with [3H]CP-55,940, membranes of HEK293 cells expressing hCB2. As to conditions: HEK293 cells expressing hCB2, [3H]CP-55,940; read-out: hCB2 Ki.
Data set [2] addresses mCB2 receptor (Mus musculus (Mouse), UniProt P47936). Briefly: mCB2 competition-equilibrium binding with [3H]CP-55,940, membranes of HEK293 cells expressing mCB2. As to conditions: HEK293 cells expressing mCB2, [3H]CP-55,940; read-out: mCB2 Ki.
A short description of data set [3]: Stability in plasma (half-life). In kind it is in vitro ADME, rat or monkey. The conditions noted are these: method: 200 μM in plasma, 37°; species of plasma not given. Here is the method:
The designed compounds carry a side chain that is susceptible to plasma esterase activity, inviting their rapid deactivation. Thus, it is important to characterize the rate of compound metabolism in isolated rat or monkey plasma. As a preliminary predictor of oral stability, this assay will also be done in buffers at pH 2 (to emulate the stomach) and pH 7.4 (physiological pH). Compounds (10 mM in DMSO) are diluted in plasma, acetonitrile or buffer to a concentration of 200 μM and incubated in a 37° shaking water bath for 2 hours. Samples are taken periodically, diluted 1:4 with acetonitrile and centrifuged to precipitate protein. The resulting supernatant is analyzed by HPLC to predict expected in vivo plasma half-lives.

For data set [4], the target named is CB1 receptor (Rattus norvegicus (Rat), UniProt P20272). Briefly: rCB1 competition-equilibrium binding with [3H]CP-55,940, rat brain membranes. As to conditions: rat brain membranes, [3H]CP-55,940; read-out: rCB1 Ki. An outline of the steps:
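Rat brain membranes were used for competition-equilibrium binding against [3H]CP-55,940. IC50 came from nonlinear regression and Ki was calculated from IC50, using at least three independent experiments.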

The conditions of data set [5]: background statement; cited from earlier work.
For data set [6] the following is noted: background statement, up to; cited from earlier work.
For data set [7] the following is noted: background statement; cited from earlier work. The source holds these as a separate data set.

Structures are written as SMILES. pKi: −log10 of the molar value. Where only a bound is given, the exact number is not on record here.

On to `COC(=O)C(C)(C)c1cc(O)c2c(c1)OC(C)(C)[C@@H]1CC=C(C)C[C@@H]21` [Compound 1.34, Methyl-2-((6aR,10aR)-6a,7,10,10a-tetrahydro-1-hydroxy-6,6,9-trimethyl-6H-benzo[c]chromen-3-yl)-2-methylpropanoate], for which the negative-log Ki (pKi) is 7.43 in data set [1], 7.46 in data set [2] and 7.08 in data set [4]. Also, the half-life at 200 μM in data set [3] was determined as 60 min.

Consider `CCCCOC(=O)C(C)(C)c1cc(O)c2c(c1)OC(C)(C)[C@@H]1CC=C(CO)C[C@@H]21` [Compound 2.2, Butyl-2-((6aR,10aR)-6a,7,10,10a-tetrahydro-1-hydroxy-9-(hydroxymethyl)-6,6-dimethyl-6H-benzo[c]chromen-3-yl)-2-methylpropanoate], for which the negative-log Ki (pKi) in data set [1] was 9.10; in data set [2], 8.82; in data set [4], 9.22. In data set [3], this compound registered a half-life at 200 μM of 5 min.

Take `CC(C)(C(=O)OCCCCn1ccnc1)c1cc(O)c2c(c1)OC(C)(C)[C@@H]1CC=C(CO)C[C@@H]21` [Compound 2.3, 4-(1H-imidazol-1-yl)-butyl-2-((6aR,10aR)-6a,7,10,10a-tetrahydro-1-hydroxy-9-(hydroxymethyl)-6,6-dimethyl-6H-benzo[c]chromen-3-yl)-2-methylpropanoate]: the results for the negative-log Ki (pKi) in data set [1], in data set [2] and in data set [4] were 8.06, 7.94 and 7.60, respectively. The half-life at 200 μM in data set [3] came to 120 min.

Consider `CCCCOC(=O)C(C)(C)c1cc(O)c2c(c1)OC(C)(C)[C@@H]1CC[C@@H](O)C[C@@H]21` [Compound 3.6, Butyl-2-((6aR,9R,10aR)-6a,7,8,9,10,10a-hexahydro-1,9-dihydroxy-6,6-dimethyl-6H-benzo[c]chromen-3-yl)-2-methylpropanoate], for which the pKi is 9.70 in data set [1], 9.70 in data set [2] and 10.00 in data set [4]. Moreover, the half-life at 200 μM in data set [3] was found to be 3 min.

On to `CCCCOC(=O)C(C)(C)c1cc(O)c2c(c1)OC(C)(C)[C@@H]1CC[C@H](O)C[C@@H]21` [Compound 3.8, Butyl-2-((6aR,9S,10aR)-6a,7,8,9,10,10a-hexahydro-1,9-dihydroxy-6,6-dimethyl-6H-benzo[c]chromen-3-yl)-2-methylpropanoate], for which the pKi in data set [1] was 8.35; in data set [2], 8.18; in data set [4], 8.51. The compound also gave a half-life at 200 μM in data set [3] of 8 min.

Take `CCCCCc1cc(O)c2c(c1)OC(C)(C)[C@@H]1CCC(C)=C[C@@H]21` [Dronabinol]: the “clog P” value in data set [5] was > 7. In addition, the “slow and erratic absorption” value in data set [6] is 2 to 6 h. Further, the protein binding in data set [7] is listed as ≥ 97%.

`CCCCCCC(C)(C)c1cc(O)c2c(c1)OC(C)(C)C1CCC(=O)CC21` (stereo not shown) [Nabilone]: the “clog P” value in data set [5] was > 7. Besides, in data set [7], the protein binding is ≥ 97%.
